The target of test [1] is T1, gamma-secretase (Homo sapiens, UniProt P49768).
T1 construct: partially purified extract of IMR-32 cell membranes as the gamma-secretase enzyme preparation; endogenous in cells; host or cells: IMR-32 cell membranes (partially purified extract)
Kind of test: Gamma-secretase APP enzyme assay. It counts as biochemical. As to conditions: cleavage of MBP-C125 Swe substrate at the Aβ40 site; partially purified extract of IMR-32 cell membranes; ELISA. In outline:
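IMR-32 membrane extract (25 Units) was preincubated with inhibitor for 30 min at 37 °C, then MBP-C125swe substrate (0.05 mg/ml) was added for 2 h at 37 °C in Hepes/NaCl with BigCHAPS and brain lipid (0.53 mg/ml). Reaction stopped with 0.1% SDS. Aβ40 neo-epitope product captured overnight at 4 °C and quantified by sandwich ELISA against a six-point standard curve.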
In general terms: ELISA stands for enzyme-linked immunosorbent assay.

For test [2], the target named is T2, gamma secretase (Mus musculus, UniProt P49769).
T2 construct: host or cells: brain of PDAPP transgenic mice (in vivo)
As to conditions: PDAPP mice, acute inhibition, in-vivo; cited from earlier work.

Take `O=S(=O)(c1ccc(C(F)(F)F)nc1)N1c2cc(C(F)(F)F)ccc2-c2[nH]ncc2[C@H]1C1CC1` [(R)-4-cyclopropyl-7-(trifluoromethyl)-5-(6-(trifluoromethyl)pyridin-3-ylsulfonyl-4,5-dihydro-1H-pyrazolo[4,3-c]quinoline]: in test [1], the IC50 is 0.1 to 100 nM. The same measure, in the same setting: as for `O=S(=O)(c1ccc(C(F)(F)F)nc1)N1c2ccc(C(F)(F)F)cc2-c2[nH]ncc2[C@H]1C1CC1` [(R)-4-cyclopropyl-8-(trifluoromethyl)-5-(6-(trifluoromethyl)pyridin-3-ylsulfonyl)-4,5-dihydro-1H-pyrazolo[4,3-c]quinoline], the figure is 0.1 to 100 nM; as for `O=S(=O)(c1ccc(OC(F)(F)F)cc1)N1c2ccc(F)cc2-c2[nH]ncc2[C@H]1C1CC1` [(R)-4-cyclopropyl-8-fluoro-5-(4-(trifluoromethoxy)phenylsulfonyl)-4,5-dihydro-1H-pyrazolo[4,3-c]quinoline], 0.1 to 100 nM; as for `COc1ccc(S(=O)(=O)N2c3ccc(F)cc3-c3[nH]ncc3[C@H]2C2CC2)cc1` [(R)-4-cyclopropyl-8-fluoro-5-(4-methoxyphenylsulfonyl)-4,5-dihydro-1H-pyrazolo[4,3-c]quinoline], 0.1 to 100 nM.

With `CC[C@@H]1c2cn[nH]c2-c2cc(F)c(F)cc2N1S(=O)(=O)c1ccc(C(F)(F)F)cc1` [(R)-4-ethyl-7,8-difluoro-5-(4-(trifluoromethyl)phenylsulfonyl)-4,5-dihydro-1H-pyrazolo[4,3-c]quinoline], the 50% inhibitory concentration (IC50) in test [1] lay within 0.1 to 100 nM. As to `C[C@H](NC(=O)Cc1cc(F)cc(F)c1)C(=O)N[C@H](C(=O)OC(C)(C)C)c1ccccc1` [DAPT], in test [2], the “Aβ in the brain” value is recorded as “reduction of Aβ in the brain”.

For orientation: IC50 means the point on the concentration scale where inhibition reaches its midpoint. Read a low IC50 as greater potency in that assay.

(Values after US20080021056A1, “Fused, Tricyclic Sulfonamide Inhibitors of Gamma Secretase” (priority 2006, published 2008).)
